In EP0745595A1, “3-(3-Aryloxyphenyl)-1-(substituted methyl)-s-triazine-2,4,6-oxo or thiotrione herbicidal agents” (American Cyanamid Company, priority 1995, dated 1996):

How the values were obtained:
Format in all cases: in vivo
[1] = tested on: GLYCINE MAX(L) MERR. CV. WILLIAMS; assay: Preemergence herbicidal evaluation, GLXMAW (Soybean, Williams); conditions: rated four to five weeks after treatment
Method in brief: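 First, seeds in potting soil are sown atop soil in cups. Next, the surface is sprayed with test compound in aqueous acetone at roughly 0.125 to 0.50 kg per hectare. After four to five weeks of greenhouse care, each cup is scored 0-9 against a control.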

[2] = tested on: GLYCINE MAX(L) MERR. CV. WILLIAMS; assay: Postemergence herbicidal evaluation, GLXMAW (Soybean, Williams); parameters: key to GLXMAW rating / Herbicidal effect rating, GLXMAW / GLXMAW: 0-9 visual rating scale vs untreated control
Method in brief: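 Herbicidal injury to Williams soybean was assessed after a postemergence spray of two-week-old seedlings grown in jiffy flats. Compounds were dispersed in an acetone/water (50/50) mixture with 0.5% TWEEN®20 surfactant and applied at 40 psi. After four to five weeks in the greenhouse, stand, vigor, malformation, size and chlorosis were compared against a control on a 0-9 scale, and results from replicate tests were averaged.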

CYPERUS IRIA = assay: Preemergence weed control under flooded paddy conditions, CYPIR (Rice Flatsedge); conditions: for Herbicidal effect rating, CYPIR: preemergence, 3-4 weeks after treatment; for CYPIR: pre-weed
Method in brief: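 This preemergence test mimicked flooded paddy conditions: rice flatsedge propagules were sown in the upper 0.5 cm of silt loam in undrained 32 oz. containers (10.5 cm diameter), with water held 1.5 to 3 cm over the soil. After normal greenhouse care, plants were scored 0-9 for stand, vigor, malformation, size, chlorosis and appearance relative to controls.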

ZEA MAYS L. [3] = assay: Postemergence herbicidal evaluation, ZEAMX (Corn, Field);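 further: higher means more injury with 8 approaching complete kill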
Method in brief: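 This greenhouse postemergence test treated corn plants about two weeks old. Compounds in a 50/50 acetone/water mixture with 0.5% TWEEN®20 were applied through a spray nozzle at 40 psi. After four to five weeks, injury was scored 0-9 against an untreated control, judging stand, vigor, malformation, size, chlorosis and overall appearance. Repeated tests were averaged.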

[4] = tested on: ORYZA SATIVA, L. TEBONNET; assay: Postemergence herbicidal evaluation, ORYSAT (Rice, Tebonnet); parameters: key: 0-9 visual rating scale vs untreated control
Procedure: In the tests, seedling plants are grown in jiffy flats for about two weeks. The test compounds are dispersed in 50/50 acetone/water mixtures containing 0.5% TWEEN®20, a polyoxyethylene sorbitan monolaurate surfactant of Atlas Chemical Industries, in sufficient quantities to provide the equivalent of about 0.125 kg to 0.500 kg per hectare of active compound when applied to the plants through a spray nozzle operating at 40 psi for a predetermined time. After spraying, the plants are placed on greenhouse benches and are cared for in the usual manner, commensurate with conventional greenhouse practices. From four to five weeks after treatment, the seedling plants are examined and rated according to the rating system set forth below. Where more than one test is involved for a given compound, the data are averaged.
Plant species employed in these evaluations are reported by header abbreviation, common name and scientific name.
Results of herbicide evaluation are expressed on a rating scale (0-9). The scale is based upon a visual observation of plant stand, vigor, malformation, size, chlorosis and overall plant appearance as compared with a control.

[…], PRESL. = Preemergence weed control under flooded paddy conditions, MOOVA (Monochoria); conditions: for Herbicidal effect rating, MOOVA: preemergence, 3-4 weeks after treatment; for MOOVA: pre-weed
Method in brief: (§1)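 Visual 0-9 rating against untreated control, covering stand, vigor, malformation, size and chlorosis, scored three to four weeks post-treatment in a greenhouse. Application was into 1.5-3 cm flood water over silt loam sown at 0.5 cm. The 50/50 v/v aqueous/acetone doses were about 0.5, 0.25, 0.125 and 0.063 kg/ha.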

ZEA MAYS L. [5] = assay: Preemergence herbicidal evaluation, ZEAMX (Corn, Field)
Method in brief: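 Preemergence herbicidal activity on field corn: seeds in potting soil were sown atop roughly one inch of soil in separate pint cups, treated, and grown under standard greenhouse care. Four to five weeks post-treatment, stand, vigor, malformation, size, chlorosis and overall appearance were compared with a control and scored 0-9.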

[6] = tested on: ECHINOCHLOA ORYZOIDES (ARD.)FRITSCH; assay: Preemergence weed control under flooded paddy conditions, ECHORC (Watergrass (Calif.)); conditions: pre-weed
Method in brief: as §1

[7] = tested on: CYPERUS SEROTINUS, ROTTB.; assay: Preemergence weed control under flooded paddy conditions, CYPSE (Flatsedge); conditions: pre-weed
Method in brief: as §1

SAGITTARIA PYGMAEA, L. = assay: Preemergence weed control under flooded paddy conditions, SAGPY (Arrowhead (Pygmaea)); conditions: pre-weed
Method in brief: as §1

CASSIA OBTUSIFOLIA, L. = assay: Preemergence herbicidal evaluation, CASOB (Sicklepod)
Method in brief: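 Preemergence herbicidal activity against sicklepod was assessed by planting seed mixed with potting soil atop about one inch of soil in pint cups. After treatment the cups were watered and handled per standard greenhouse practice. Tests ended four to five weeks later, with plant stand, vigor, malformation, size, chlorosis and overall appearance scored 0-9 relative to a control.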

Compound	GLXMAW ([2]; Rate 0.016 kg/ha)	GLXMAW ([2]; Rate 0.032 kg/ha)	GLXMAW ([2]; Rate 0.063 kg/ha)	GLXMAW ([2]; Rate 0.125 kg/ha)	GLXMAW ([2]; Rate 0.250 kg/ha)	GLXMAW ([2]; Rate 0.500 kg/ha)	CYPIR (CYPERUS IRIA; Rate 0.250 kg/ha)	ZEAMX (ZEA MAYS L. [3]; Rate 0.016 kg/ha)	ZEAMX (ZEA MAYS L. [3]; Rate 0.032 kg/ha)	ZEAMX (ZEA MAYS L. [3]; Rate 0.063 kg/ha)	ZEAMX (ZEA MAYS L. [3]; Rate 0.125 kg/ha)	ZEAMX (ZEA MAYS L. [3]; Rate 0.250 kg/ha)	ZEAMX (ZEA MAYS L. [3]; Rate 0.500 kg/ha)	ORYSAT ([4]; Rate 0.016 kg/ha)	ORYSAT ([4]; Rate 0.032 kg/ha)	ORYSAT ([4]; Rate 0.063 kg/ha)	ORYSAT ([4]; Rate 0.125 kg/ha)	ORYSAT ([4]; Rate 0.250 kg/ha)	ORYSAT ([4]; Rate 0.500 kg/ha)	ECHORC ([6]; Rate 0.250 kg/ha)	also measured
COC(=O)Cn1c(=O)n(C)c(=O)n(-c2cc(Oc3ccc(C(F)(F)F)cc3Cl)ccc2Cl)c1=O [Compound 39, Methyl 3-{[2-chloro-5-(2-chloro-α,α,α-trifluoro-p-tolyl)oxy]phenyl}tetrahydro-5-methyl-2,4,6-trioxo-s-triazine-1(2H)-acetate]	3.8	4.5	5.3	5.5	6.3	7.0	9.0	3.3	4.3	4.8	6.5	8.0	8.5	2.3	3.3	4.8	4.3	4.8	4.5	–	GLXMAW herbicidal rating ([1]; Rate 0.125 kg/ha): 2.0; GLXMAW herbicidal rating ([1]; Rate 0.250 kg/ha): 2.0; GLXMAW herbicidal rating ([1]; Rate 0.500 kg/ha): 2.0; Herbicidal effect rating, CYPIR (CYPERUS IRIA; 0.063 kg/ha): 9.0; Herbicidal effect rating, CYPIR (CYPERUS IRIA; 0.125 kg/ha): 9.0; Herbicidal effect rating, CYPIR (CYPERUS IRIA; 0.250 kg/ha): 9.0; Herbicidal effect rating, CYPIR (CYPERUS IRIA; 0.500 kg/ha): 9.0; CYPIR (CYPERUS IRIA; Rate 0.031 kg/ha): 9.0; CYPIR (CYPERUS IRIA; Rate 0.063 kg/ha): 9.0; CYPIR (CYPERUS IRIA; Rate 0.125 kg/ha): 9.0; Herbicidal effect rating, MOOVA ([…], PRESL.; 0.063 kg/ha): 9.0; Herbicidal effect rating, MOOVA ([…], PRESL.; 0.125 kg/ha): 9.0; Herbicidal effect rating, MOOVA ([…], PRESL.; 0.250 kg/ha): 9.0; Herbicidal effect rating, MOOVA ([…], PRESL.; 0.500 kg/ha): 9.0; MOOVA ([…], PRESL.; Rate 0.031 kg/ha): 9.0; MOOVA ([…], PRESL.; Rate 0.063 kg/ha): 9.0; MOOVA ([…], PRESL.; Rate 0.125 kg/ha): 9.0; MOOVA ([…], PRESL.; Rate 0.250 kg/ha): 9.0
Cn1c(=O)[nH]c(=O)n(-c2cc(Oc3c(F)cc(C(F)(F)F)cc3Cl)ccc2[N+](=O)[O-])c1=O [D, reference compound]	4.2	–	4.7	5.5	–	–	–	3.3	–	4.2	5.5	–	–	3.8	–	4.8	5.3	–	–	9.0	ZEAMX (ZEA MAYS L. [5]; Rate 0.031 kg/ha): 0.0; ZEAMX (ZEA MAYS L. [5]; Rate 0.063 kg/ha): 0.0; ZEAMX (ZEA MAYS L. [5]; Rate 0.125 kg/ha): 0.0; ZEAMX (ZEA MAYS L. [5]; Rate 0.250 kg/ha): 0.0; ECHORC ([6]; Rate 0.031 kg/ha): 9.0; ECHORC ([6]; Rate 0.063 kg/ha): 9.0; ECHORC ([6]; Rate 0.125 kg/ha): 9.0; GLXMAW ([2]; Rate 0.008 kg/ha): 2.5; GLXMAW ([2]; Rate 0.031 kg/ha): 4.5; ZEAMX (ZEA MAYS L. [3]; Rate 0.008 kg/ha): 1.0; ZEAMX (ZEA MAYS L. [3]; Rate 0.031 kg/ha): 3.3; ORYSAT ([4]; Rate 0.031 kg/ha): 4.3
Cn1c(=O)[nH]c(=O)n(-c2cccc(Oc3ccc(C(F)(F)F)cc3Cl)c2)c1=O [E, reference compound]	–	–	2.0	2.5	3.0	3.5	0.0	–	–	1.5	1.5	1.5	2.5	–	–	1.5	2.0	2.0	3.0	0.0	CYPSE ([7]; Rate 0.250 kg/ha): 0.0; CYPSE ([7]; Rate 0.500 kg/ha): 0.0; CYPSE ([7]; Rate 1.000 kg/ha): 0.0; ECHORC ([6]; Rate 0.500 kg/ha): 0.0; ECHORC ([6]; Rate 1.000 kg/ha): 0.0; SAGPY (SAGITTARIA PYGMAEA, L.; Rate 0.250 kg/ha): 0.0; SAGPY (SAGITTARIA PYGMAEA, L.; Rate 0.500 kg/ha): 0.0; SAGPY (SAGITTARIA PYGMAEA, L.; Rate 1.000 kg/ha): 0.0; CYPIR (CYPERUS IRIA; Rate 0.500 kg/ha): 0.0; CYPIR (CYPERUS IRIA; Rate 1.000 kg/ha): 0.0; CASOB (CASSIA OBTUSIFOLIA, L.; Rate 0.125 kg/ha): 0.0; CASOB (CASSIA OBTUSIFOLIA, L.; Rate 0.250 kg/ha): 0.0; CASOB (CASSIA OBTUSIFOLIA, L.; Rate 0.500 kg/ha): 0.0; CASOB (CASSIA OBTUSIFOLIA, L.; Rate 1.000 kg/ha): 0.0; MOOVA ([…], PRESL.; Rate 0.250 kg/ha): 0.0; MOOVA ([…], PRESL.; Rate 0.500 kg/ha): 0.0; MOOVA ([…], PRESL.; Rate 1.000 kg/ha): 0.0
Cn1c(=O)[nH]c(=O)n(-c2cc(Oc3ccc(C(F)(F)F)cc3Cl)ccc2Cl)c1=O [F, reference compound]	3.5	3.5	4.5	4.0	5.5	5.5	–	1.5	2.0	2.5	3.0	4.0	4.0	1.5	1.5	2.5	3.0	3.0	3.0	0.0	CYPSE ([7]; Rate 0.031 kg/ha): 0.0; CYPSE ([7]; Rate 0.063 kg/ha): 0.0; CYPSE ([7]; Rate 0.125 kg/ha): 0.0; CYPSE ([7]; Rate 0.250 kg/ha): 0.0; ECHORC ([6]; Rate 0.031 kg/ha): 0.0; ECHORC ([6]; Rate 0.063 kg/ha): 0.0; ECHORC ([6]; Rate 0.125 kg/ha): 0.0; SAGPY (SAGITTARIA PYGMAEA, L.; Rate 0.031 kg/ha): 0.0; SAGPY (SAGITTARIA PYGMAEA, L.; Rate 0.063 kg/ha): 0.0; SAGPY (SAGITTARIA PYGMAEA, L.; Rate 0.125 kg/ha): 0.0; SAGPY (SAGITTARIA PYGMAEA, L.; Rate 0.250 kg/ha): 0.0
